For 17 compounds, IC50 and Ki results are on record in ChEMBL document CHEMBL1909046, “DrugMatrix in vitro pharmacology data”.

Data set [1] addresses Aldo-keto reductase family 1 member B1 (Rattus norvegicus, UniProt P07943). In words: biochemical. The format is tissue-based, Lens of camera-type eye.
A short description of data set [2]: DRUGMATRIX: Calcium Channel Type L, Benzothiazepine radioligand binding (ligand: [3H] Diltiazem). The format is cell membranes, Rattus norvegicus, Wistar, Brain, Membrane. The conditions noted are these: Not Active = under 50% inhibition at 10 µM.
Data set [3] addresses Prostaglandin G/H synthase 1 (Homo sapiens, UniProt P23219). As to the kind of experiment: biochemical. The format is tissue-based, Platelet.
The next data set has as its target T1, D(4) dopamine receptor (Homo sapiens, UniProt P21917).
T1 sequence (P21917 whole entry): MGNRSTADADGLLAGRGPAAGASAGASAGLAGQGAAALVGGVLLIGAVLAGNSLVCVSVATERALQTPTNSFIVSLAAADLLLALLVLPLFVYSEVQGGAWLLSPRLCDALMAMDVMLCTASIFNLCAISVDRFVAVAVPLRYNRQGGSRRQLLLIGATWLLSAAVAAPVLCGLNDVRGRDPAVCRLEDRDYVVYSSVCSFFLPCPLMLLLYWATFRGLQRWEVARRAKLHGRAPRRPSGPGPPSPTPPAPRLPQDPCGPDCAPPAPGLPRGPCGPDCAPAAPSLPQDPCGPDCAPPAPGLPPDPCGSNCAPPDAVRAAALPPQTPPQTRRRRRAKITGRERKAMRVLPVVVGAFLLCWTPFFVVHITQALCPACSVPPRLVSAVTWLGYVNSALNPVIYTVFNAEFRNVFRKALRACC
In words: DRUGMATRIX: Dopamine D4.2 radioligand binding (ligand: [3H] Spiperone). The format is cell membranes, CHO-K1, Membrane. The settings on record: cho-k1; Not Active = under 50% inhibition at 10 µM.

Data set [4] can be described thus: DRUGMATRIX: Glutamate, NMDA, Agonism radioligand binding (ligand: [3H] CGP-39653). It is filed as cell membranes, Rattus norvegicus, Wistar, Cerebral cortex, Membrane. The settings on record: Not Active = under 50% inhibition at 10 µM.
A short description of data set [5]: DRUGMATRIX: Phosphodiesterase PDE3 enzyme inhibition (substrate: [3H]cAMP + cAMP). The settings on record: platelet; Not Active = under 50% inhibition at 10 µM. The format is tissue-based, Homo sapiens.
The next data set has as its target Cytochrome P450 2D6 (Homo sapiens, UniProt P10635). The settings on record: bti-tn-5b1-4. Note: in other assays of this panel Not Active means under 50% inhibition at 10 µM.

Cytochrome P450 2D6, sequence (P10635 whole entry): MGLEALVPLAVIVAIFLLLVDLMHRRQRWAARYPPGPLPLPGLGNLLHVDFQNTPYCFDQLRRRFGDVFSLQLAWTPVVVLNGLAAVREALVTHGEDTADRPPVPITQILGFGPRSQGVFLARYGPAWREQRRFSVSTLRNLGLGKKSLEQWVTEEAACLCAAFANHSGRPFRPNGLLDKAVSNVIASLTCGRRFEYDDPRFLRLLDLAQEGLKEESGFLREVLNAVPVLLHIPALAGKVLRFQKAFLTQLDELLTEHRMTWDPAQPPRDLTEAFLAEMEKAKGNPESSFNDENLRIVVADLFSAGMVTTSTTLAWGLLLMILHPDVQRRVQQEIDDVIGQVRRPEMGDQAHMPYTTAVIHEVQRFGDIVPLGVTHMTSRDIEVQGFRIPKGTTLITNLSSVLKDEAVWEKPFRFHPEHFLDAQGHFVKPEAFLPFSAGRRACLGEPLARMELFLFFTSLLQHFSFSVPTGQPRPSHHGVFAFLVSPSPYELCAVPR
Prostaglandin G/H synthase 1, sequence (P23219 whole entry): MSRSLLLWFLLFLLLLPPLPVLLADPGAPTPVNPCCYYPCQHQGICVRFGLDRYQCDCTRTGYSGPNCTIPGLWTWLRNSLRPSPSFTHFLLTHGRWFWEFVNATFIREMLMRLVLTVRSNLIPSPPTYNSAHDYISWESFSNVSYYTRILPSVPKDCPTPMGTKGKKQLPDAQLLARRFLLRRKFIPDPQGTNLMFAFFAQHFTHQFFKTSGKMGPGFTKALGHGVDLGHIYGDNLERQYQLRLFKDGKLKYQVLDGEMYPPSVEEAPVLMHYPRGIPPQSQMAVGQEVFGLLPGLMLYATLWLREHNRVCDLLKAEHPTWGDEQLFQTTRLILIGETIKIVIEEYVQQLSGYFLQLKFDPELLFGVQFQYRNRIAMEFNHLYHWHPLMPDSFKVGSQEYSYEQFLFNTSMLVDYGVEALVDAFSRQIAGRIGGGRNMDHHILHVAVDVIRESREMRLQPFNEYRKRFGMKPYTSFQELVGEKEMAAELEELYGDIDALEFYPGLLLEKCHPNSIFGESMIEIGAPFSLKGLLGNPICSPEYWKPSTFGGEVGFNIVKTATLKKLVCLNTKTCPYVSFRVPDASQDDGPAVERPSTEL

As for `C=CCN1CC[C@]23c4c5ccc(O)c4O[C@H]2/C(=N/N=C2\CC[C@@]4(O)[C@H]6Cc7ccc(O)c8c7[C@@]4(CCN6CC=C)[C@H]2O8)CC[C@@]3(O)[C@H]1C5` [NALOXONAZINE], the IC50 entry (in data set [1]; in data set [2]; in data set [3] (platelet); at D(4) dopamine receptor; in data set [4]; in data set [5]) was “Not Active” in each case. The IC50 entry at Cytochrome P450 2D6 is “Not Active”. In addition, the Ki result (in data set [2]; in data set [4]; in data set [5]; on Cytochrome P450 2D6) was “Not Active” in each case.
As for `Cc1ccnc2c1NC(=O)c1cccnc1N2C1CC1` [NEVIRAPINE], the IC50 entry (in data set [1]; in data set [2]; in data set [3] (platelet); on D(4) dopamine receptor; in data set [4]; in data set [5]) was “Not Active” throughout. Moreover, the IC50 result against Cytochrome P450 2D6 was “Not Active”. Moreover, the Ki result (in data set [2]; in data set [4]; in data set [5]; on Cytochrome P450 2D6) was “Not Active” in each case.
In the case of `O=C1CN(/N=C/c2ccc([N+](=O)[O-])o2)C(=O)N1` [NITROFURANTOIN], the IC50 entry (in data set [1]; in data set [2]; in data set [3] (platelet); on D(4) dopamine receptor; in data set [4]; in data set [5]) was “Not Active” throughout. Further, the IC50 result at Cytochrome P450 2D6 is “Not Active”. In addition, the Ki result (in data set [2]; in data set [4]; in data set [5]; on Cytochrome P450 2D6) was “Not Active” in each case.
Regarding `C#C[C@]1(O)CC[C@H]2[C@@H]3CCC4=CC(=O)CC[C@@H]4[C@H]3CC[C@@]21C` [NORETHINDRONE], the IC50 result (in data set [1]; in data set [2]; in data set [3] (platelet); at D(4) dopamine receptor; in data set [4]; in data set [5]) was “Not Active” in each case. For the same compound, the IC50 result against Cytochrome P450 2D6 is “Not Active”. For the same compound, the Ki result (in data set [2]; in data set [4]; in data set [5]; on Cytochrome P450 2D6) was “Not Active” each time.
With `NC(=O)NC(=O)Cc1ccccc1` [PHENACEMIDE], the IC50 result (in data set [1]; in data set [2]; in data set [3] (platelet); at D(4) dopamine receptor; in data set [4]; in data set [5]) was “Not Active” throughout. In addition, the 50% inhibitory concentration (IC50) result against Cytochrome P450 2D6 is listed as “Not Active”. Also, the Ki entry (in data set [2]; in data set [4]; in data set [5]; on Cytochrome P450 2D6) was “Not Active” each time.
Consider `O=C1c2ccccc2C(=O)C1c1ccccc1` [PHENINDIONE], for which the IC50 entry (in data set [1]; in data set [2]; in data set [3] (platelet); at D(4) dopamine receptor; in data set [4]; in data set [5]) was “Not Active” in each case. Moreover, the IC50 result on Cytochrome P450 2D6 was “Not Active”. Moreover, the Ki entry (in data set [2]; in data set [4]; in data set [5]; at Cytochrome P450 2D6) was “Not Active” each time.
For the compound `CCC1(c2ccccc2)C(=O)NC(=O)NC1=O` [PHENOBARBITAL], the half-maximal inhibitory concentration (IC50) result (in data set [1]; in data set [2]; in data set [3] (platelet); on D(4) dopamine receptor; in data set [4]; in data set [5]) was “Not Active” throughout. Further, the IC50 entry at Cytochrome P450 2D6 was “Not Active”. The Ki result (in data set [2]; in data set [4]; in data set [5]; at Cytochrome P450 2D6) was “Not Active” each time.
On to `Oc1ccccc1` [PHENOL], for which the IC50 entry (in data set [1]; in data set [2]; in data set [3] (platelet); on D(4) dopamine receptor; in data set [4]; in data set [5]) was “Not Active” in each case. Besides, at Cytochrome P450 2D6, the 50% inhibitory concentration (IC50) result is recorded as “Not Active”. Further, the inhibition constant (Ki) result (in data set [2]; in data set [4]; in data set [5]; at Cytochrome P450 2D6) was “Not Active” in each case.
On to `c1ccc2c(c1)Nc1ccccc1S2` [PHENOTHIAZINE], for which the IC50 result in data set [1] was “Not Active”; in data set [2] it was “Not Active”; in data set [3] (read-out: IC50), 0.196 µM; at D(4) dopamine receptor, “Not Active”; in data set [4], “Not Active”; in data set [5] it was “Not Active”. Further, the IC50 entry at Cytochrome P450 2D6 is listed as “Not Active”. In addition, the Ki result (in data set [2]; in data set [4]; in data set [5]; at Cytochrome P450 2D6) was “Not Active” each time.
In the case of `CCN1CCN(C(=O)N[C@@H](C(=O)N[C@@H]2C(=O)N3[C@@H]2SC(C)(C)[C@@H]3C(=O)O)c2ccccc2)C(=O)C1=O` [PIPERACILLIN], the IC50 entry (in data set [1]; in data set [2]; in data set [3] (platelet); on D(4) dopamine receptor; in data set [4]; in data set [5]) was “Not Active” throughout. Also, the IC50 entry on Cytochrome P450 2D6 is given as “Not Active”. The Ki entry (in data set [2]; in data set [4]; in data set [5]; at Cytochrome P450 2D6) was “Not Active” each time.
Take `COc1cc([C@@H]2c3cc4c(cc3[C@H](O)[C@H]3COC(=O)[C@H]23)OCO4)cc(OC)c1OC` [PODOFILOX]: the IC50 result (in data set [1]; in data set [2]; in data set [3] (platelet); at D(4) dopamine receptor; in data set [4]; in data set [5]) was “Not Active” in each case. For the same compound, the IC50 result at Cytochrome P450 2D6 is on record as “Not Active”. Further, the Ki result (in data set [2]; in data set [4]; in data set [5]; at Cytochrome P450 2D6) was “Not Active” in each case.
With `COc1cc(NC(C)CCCN)c2ncccc2c1` (stereo unspecified) [PRIMAQUINE], the IC50 entry (in data set [1]; in data set [2]; in data set [3] (platelet); at D(4) dopamine receptor; in data set [4]; in data set [5]) was “Not Active” in each case. Further, the IC50 entry against Cytochrome P450 2D6 was “Not Active”. The Ki entry (in data set [2]; in data set [4]; in data set [5]; on Cytochrome P450 2D6) was “Not Active” each time.
For `CC(CN1c2ccccc2Sc2ccccc21)N(C)C` (stereo unspecified) [PROMETHAZINE], the IC50 result is “Not Active” in data set [1]; 2.78 µM in data set [2] (read-out: IC50); “Not Active” in data set [3] (platelet); “Not Active” at D(4) dopamine receptor; “Not Active” in data set [4]; “Not Active” in data set [5]. In addition, the IC50 result against Cytochrome P450 2D6 is given as “Not Active”. The inhibition constant Ki in data set [2] (read-out: Ki) is 2.47 µM; in data set [4] it was “Not Active”; in data set [5], “Not Active”; on Cytochrome P450 2D6, “Not Active”.
For the compound `COc1ccc(C[C@H](N)C(=O)N[C@H]2[C@@H](O)[C@H](n3cnc4c(N(C)C)ncnc43)O[C@@H]2CO)cc1` [PUROMYCIN], the IC50 result (in data set [1]; in data set [2]; in data set [3] (platelet); on D(4) dopamine receptor; in data set [4]; in data set [5]) was “Not Active” each time. Also, the IC50 entry against Cytochrome P450 2D6 is recorded as “Not Active”. The Ki entry (in data set [2]; in data set [4]; in data set [5]; on Cytochrome P450 2D6) was “Not Active” in each case.
CARBOXYMETHYLCELLULOSE: the IC50 result (in data set [1]; in data set [2]; in data set [3] (platelet); on D(4) dopamine receptor; in data set [4]; in data set [5]) was “Not Active” throughout. Also, the IC50 result at Cytochrome P450 2D6 is “Not Active”. Further, the inhibitory constant (Ki) result (in data set [1]; in data set [2]; in data set [3] (platelet); on D(4) dopamine receptor; in data set [4]; in data set [5]) was “Not Active” in each case. The Ki entry at Cytochrome P450 2D6 was “Not Active”.
In the case of CHROMIC CHLORIDE, the IC50 result (in data set [1]; in data set [2]; in data set [3] (platelet); at D(4) dopamine receptor; in data set [4]; in data set [5]) was “Not Active” in each case. Moreover, the IC50 result against Cytochrome P450 2D6 is “Not Active”. Further, the Ki result (in data set [1]; in data set [2]; in data set [3] (platelet); on D(4) dopamine receptor; in data set [4]; in data set [5]) was “Not Active” each time. Besides, the Ki entry at Cytochrome P450 2D6 is listed as “Not Active”.
Turning to COPPER(II) OXIDE, the 50% inhibitory concentration (IC50) result (in data set [1]; in data set [2]; in data set [3] (platelet); at D(4) dopamine receptor; in data set [4]; in data set [5]) was “Not Active” each time. For the same compound, at Cytochrome P450 2D6, the IC50 result was “Not Active”. Also, the Ki entry (in data set [1]; in data set [2]; in data set [3] (platelet); at D(4) dopamine receptor; in data set [4]; in data set [5]) was “Not Active” throughout. For the same compound, the Ki entry on Cytochrome P450 2D6 is given as “Not Active”.

As a reminder, the IC50 is the point on the concentration scale where inhibition reaches its midpoint. In general, Ki refers to a measure of affinity in units of concentration, obtained from inhibition or displacement.
